From US11925643B2, “Toll-like receptor 4 (TLR4) inhibitors and use thereof” (MOR RESEARCH APPLICATIONS LTD., priority 2018, dated 2024)

Test system: IL-1β mRNA
Assay: IL-1β mRNA level by RT-qPCR in hypoxic cardiomyocytes
Format: cell-based
Conditions: hypoxic conditions
Procedure: Real-time RT-PCR experiments were performed in duplicates on an ABI 7900 instrument (Applied Biosystems™) using Taqman™ Master Mix (Applied Biosystems™). The average threshold cycles (Ct) of the duplicates were used to calculate the relative expression levels of the following genes: TLR4 (Applied Biosystems™ assay primer ID: Mm00569848_m1 Tlr4), TLR2 (assay primer ID: Mm01769726_m1 Tlr2), TNF-α (assay primer ID: Mm00443260_g1 Tnf) and IL-1β (assay primer ID: Mm00434228_m1 II1b) in vitro and in vivo following hypoxia or ischemia, respectively. The reference gene was TBP and the primer used was derived from mouse TATA-box binding protein (Applied Biosystems™ assay primer ID: Mm00446973_m1 Tbp). Amounts of TLR2, TLR4, TNF-α and IL-1β mRNAs in each sample were calculated relative to TBP mRNA, based on the corresponding Cts, as Relative Quantity (RQ) values, and normalized taking as 1 a randomly selected sample of the control group (TBP mRNA). […]
Decoy peptides represented by compounds PM1-PM10 were tested in vitro for their ability to decrease the level of CK and LDH released by stressed cardiomyocytes following exposure to LPS or hypoxic stimulation, and further evaluated for their ability to affect the level of IL-1β and TLR4 mRNA, and expression of IκB and TLR4 proteins, according to the protocols described in Materials and Methods and in Example 5 herein above.

Q: Which “inhibition of IL-1β mRNA production” value does the source give for `CCCCCCCCNc1nc(=O)n(Cc2ccccc2)cc1C` [PM6, 1-benzyl-5-methyl-4-(octylamino)pyrimidin-2(1H)-one] here?
A: ~12 fold
